Experimental data taken from patent US8481489B2, “GH secretagogues and uses thereof” (Theratechnologies Inc., priority 2003, dated 2013).
Where “and” joins values, the source holds several entries; their conditions need not be identical. Equal values may be shown once. Read-outs that look alike come from different tables or passages of the source. Marks after values point to notes of the source that are not given here.

Key:
IGF-1 and IGFBP-3 = assay: Circulating IGF-1 and IGFBP-3 levels, insomnia study; type: in vivo, human; details: week 2
[1] = test system: healthy subjects exhibiting age-related sleep impairment; assay: P300 event-related potential test, 7-day cross-over study; type: in vivo, human; details: 1 mg daily for 7 days
Method: In this study, TH9507 was administered daily for 7 days in a cross-over design. […] Changes from Baseline to day 9 in the Pz amplitude of the Evoked Related Potential (P300) observed in the placebo and 1 mg group were as follows: Placebo, −15%; 1 mg, +55%, P=0.0114, as analyzed by an ANOVA model.

[2] = test system: antigen-specific proliferative T cell response; type: in vivo, human; details: 2 mg SC daily 8 weeks; week 0 to week 20; Panama, New Caledonia, Victoria
[3] = test system: A/New Caledonia/20/99, A/Panama/2007/99, B/Victoria/504/2000 antigens; assay: Influenza antibody titers by hemaglutination inhibition assay in elderly subjects; type: in vivo, human
IGF-1 [4] = assay: Mean IGF-1 values, influenza vaccination study; type: in vivo, human; details: 1 and 2 mg SC daily, whole 8-week treatment period
Method: (§1) Eighty seven (87) subjects aged 75 years in average were included in a double-bind, randomized, placebo-controlled study. TH9507 or a placebo was administered at a daily dose of 1 or 2 mg by subcutaneous injection for 8 weeks. Follow-up assessments were conducted for 12 weeks after the end of the treatment period. At week 4, in the middle of the treatment period, subjects received the commercial Canadian influenza vaccine (Vaccine Fluviral® S/F, Shire, Montreal, Canada) containing 15 μg each of A/New Caledonia/20/99, A/Panama/2007/99, B/Victoria/504/2000 antigens.
Values returned to baseline following cessation of treatment.

[5] = type: in vivo, human; details: 1 or 2 mg SC daily, 8 weeks
Method: as §1

GH secretion = assay: GH response and other pituitary hormones, 7-day study in healthy men; type: in vivo, human; details: dose dependent between 0.5 and 1 mg, similar at 1 and 2 mg
Method: The study used a randomized, double-blind, placebo-controlled design and was conducted in healthy men, aged 50 to 60 years old. Subjects (8 per group) were injected S.C. once a day for 7 consecutive days with placebo, 0.5, 1 or 2 mg of TH9507. Circulating IGF-1 levels were measured on Days 1 to 7. […]

[6] = TH9507 PK profile, 7-day study in healthy men; type: in vivo, human
Method: The study used a randomized, double-blind, placebo-controlled design and was conducted in healthy men, aged 50 to 60 years old. Subjects (8 per group) were injected S.C. once a day for 7 consecutive days with placebo, 0.5, 1 or 2 mg of TH9507. Circulating IGF-1 levels were measured on Days 1 to 7. The 12 hour GH response and TH9507 PK profile were determined on Day 1 and 7.

[7] = test system: type II diabetic patients; assay: Glucose control in type II diabetic patients; type: in vivo, human; details: for glycosylated hemoglobin (HbA1c) levels: Week 12
Method: (§2) A double-blind placebo-controlled study was conducted in 53 type II diabetic patients (age=61±7 [SD]; 34% female) on stable antidiabetic medication (26% on insulin). Patients were randomized to parallel groups to receive daily subcutaneous administration of a placebo, 1 mg or 2 mg TH9507, respectively.
Clinically relevant changes in antidiabetic medications occurred with a similar incidence in the three treatment groups.

IGF-1 [8] = assay: IGF-1 levels in type II diabetic patients; type: in vivo, human; details: end of 12-week treatment period
Method: as §2

[9] = test system: HIV-infected patients with abdominal fat accumulation; details: for CD4, Δ: change from baseline, Week 12, mean (SD)
Method: (§3) Design: Randomized, placebo-controlled, multi-center, dose ranging (placebo, 1 mg or 2 mg SC QD), parallel group, 12-week study
(§4) Biochemical parameters including insulin-like growth factor-I, glucose, insulin, lipid profile (cholesterol, HDL, LDL, triglyceride, non HDL and the ratio of cholesterol:HDL), free fatty acids, HbA1C, IGFBP-3, and bone markers (serum osteocalcin and NTX-1), CD4, viral load, and a pregnancy test for female subjects were determined in the fasting state.
(§5) Clinical laboratory testing was performed by a central lab. […] NTX (N-terminal telopeptide of type I collagen; a bone resorption marker) was measured by ELISA using a commercially available kit (Osteomark™, Ostex International Inc., Seattle, Wash.). Osteocalcin was measured using a commercially available enzymatic immunoassay kit (Metra™ osteocalcin, Quidel Corporation, San Diego, Calif.). CD4 and viral load were performed by the individual site labs by routine methodology.

[10] = in vivo
IGF-1 [11] = details: daily 1 and 2 mg doses; reference (14); cited from earlier work
[12] = test system: type II diabetic patients; details: patients with Type II DM, daily dose up to 2 mg; reference (15); cited from earlier work
[13] = test system: HIV-infected patients with abdominal fat accumulation; assay: Lipid parameters, HIV lipodystrophy study; details: mean (SD); for Chol:HDL, Δ / HDL, Δ / LDL, Δ / NONHDL Cholesterol, Δ / Total Cholesterol, Δ / Triglycerides, Δ: change from baseline, Week 12; for Triglyceride levels change / ratio of cholesterol to HDL change: last observation values
Method: as §3
At the baseline visit, anthropometric measurements were obtained. […] Biochemical parameters including insulin-like growth factor-I, glucose, insulin, lipid profile (cholesterol, HDL, LDL, triglyceride, non HDL and the ratio of cholesterol:HDL), free fatty acids, HbA1C, IGFBP-3, and bone markers (serum osteocalcin and NTX-1), CD4, viral load, and a pregnancy test for female subjects were determined in the fasting state. In addition, insulin and glucose response to a 75 gram standard glucose challenge were assessed and a quality of life questionnaire was administered.
Clinical laboratory testing was performed by a central lab. Serum IGF-1 was measured after acid-ethanol extraction using the Esoterix RIA kit (Esoterix Inc., Calabasas Hill, Calif.), with a sensitivity of 10 ng/mL. Intra- and inter-assay coefficients of variation were 4.6-20% and 9-10%, respectively. Serum IGFBP-3 was measured using the Esoterix RIA kit (Esoterix Inc., Calabasas Hill, Calif.) with a sensitivity of 0.3 mg/mL. Intra- and inter-assay coefficients of variation were 5.1-13% and 5.5-17%, respectively. HDL, LDL, total cholesterol, triglycerides and FFA were determined by enzymatic calorimetric assay. Glucose was measured by enzymatric test (Gluco-Quant®, Roche diagnostics, Indianapolis, Ind.). HbA1c was determined by chromatography.
Other endpoints included IGF-I, lipid parameters, glucose and insulin, CD4, viral load, bone markers, and quality of life. A sample size of 20 patients/group was planned to assess a statistically significant change of 10% or more in intra-group analyses. The planned dropout rate was 25% and therefore 60 patients were enrolled into the study. Baseline data are compared between the groups by F-test based on ANOVA for continuous variables and Chi-Square test for categorical variables. Change over time between groups is compared by ANOVA or the Chi-Square test. Where appropriate, data were rank transformed prior to analysis. Changes within each group are determined by t-test. The ITT (intent to treat) population is defined as all subjects who received at least one dose of the study treatment. Descriptive statistics and analyses for all efficacy and safety analyses are performed on the ITT population. End of study, 12 week, data are used to calculate changes in body composition. For biochemical indices, the last observation available is used to calculate change. Imputation for missing data is not performed. For body composition, end of study data are used to calculate change. Interim analyses were not performed. Results are mean (SD) unless otherwise noted. All statistical tests were performed with a two-sided Type I error level of 0.05.

[14] = test system: HIV-infected patients with abdominal fat accumulation; assay: Body composition by DEXA, HIV lipodystrophy study; details: for Fat Mass, Δ / Lean Body Mass, Δ / Limb Fat, Δ / Trunk Fat, Δ: change from baseline, Week 12, mean (SD)
Method: as §3
Patients: 61 HIV-infected patients (BMI 28±3 [SD] kg/m^2, 28% diabetic or glucose intolerant) with increased waist circumference (102 cm±8 [SD]) and waist/hip (1.0±0.1 [SD])
At the baseline visit, anthropometric measurements were obtained. Total body lean and fat mass as well as regional fat mass in the trunk and extremities were assessed by DEXA. Abdominal subcutaneous and visceral fat area and the ratio of VAT to SAT were determined by cross-sectional CT at L4-L5.
Whole body and regional DEXA (dual energy X-ray absorptiometry) and cross-sectional abdominal CT scans were performed at the individual study sites based on previously established protocols and were standardized across sites. Digitized images were sent to a central reading center, St. Lukes Roosevelt Hospital, for analysis by independent experts without knowledge of treatment assignment. Each site was given a procedure manual to follow in obtaining the body composition data and was certified in the proper technique. For the CT scans, parameters were standardized as follows: Tube Voltage=120 kV, Tube Current=250 mA, Exposure=375 mAs, matrix 512×512. DFOV was set to include the entire slice into the field of view. For the DEXA scans total body scans were performed with analysis of lean body mass, total fat mass, and regional fat mass in the trunk and extremities as previously described (16).
Body composition endpoints included trunk fat and trunk to limb fat ratio by DEXA and VAT and VAT:SAT by CT scan. […] Baseline data are compared between the groups by F-test based on ANOVA for continuous variables and Chi-Square test for categorical variables. Change over time between groups is compared by ANOVA or the Chi-Square test. Where appropriate, data were rank transformed prior to analysis. Changes within each group are determined by t-test. The ITT (intent to treat) population is defined as all subjects who received at least one dose of the study treatment. Descriptive statistics and analyses for all efficacy and safety analyses are performed on the ITT population. End of study, 12 week, data are used to calculate changes in body composition. […] Imputation for missing data is not performed. For body composition, end of study data are used to calculate change. […] Results are mean (SD) unless otherwise noted. All statistical tests were performed with a two-sided Type I error level of 0.05.

[15] = test system: HIV-infected patients with abdominal fat accumulation; assay: Bone turnover markers (osteocalcin, NTX), HIV lipodystrophy study; details: for NTX, Δ / Osteocalcin, Δ: change from baseline, Week 12, mean (SD)
Method: as §3, §4, §5

[16] = Adverse events, discontinuation and safety laboratory, HIV lipodystrophy study

In the case of CC/C=C/CC(=O)N[C@@H](Cc1ccc(O)cc1)C(=O)N[C@@H](C)C(=O)N[C@@H](CC(=O)O)C(=O)N[C@@H](C)C(=O)N[C@H](C(=O)N[C@@H](Cc1ccccc1)C(=O)N[C@H](C(=O)N[C@@H](CC(N)=O)C(=O)N[C@@H](CO)C(=O)N[C@@H](Cc1ccc(O)cc1)C(=O)N[C@@H](CCCNC(=N)N)C(=O)N[C@@H](CCCCN)C(=O)N[C@H](C(=O)N[C@@H](CC(C)C)C(=O)NCC(=O)N[C@@H](CCC(N)=O)C(=O)N[C@@H](CC(C)C)C(=O)N[C@@H](CO)C(=O)N[C@@H](C)C(=O)N[C@@H](CCCNC(=N)N)C(=O)N[C@@H](CCCCN)C(=O)N[C@@H](CC(C)C)C(=O)N[C@@H](CC(C)C)C(=O)N[C@@H](CCC(N)=O)C(=O)N[C@@H](CC(=O)O)C(=O)N[C@H](C(=O)N[C@@H](CCSC)C(=O)N[C@@H](CO)C(=O)N[C@@H](CCCNC(=N)N)C(=O)N[C@@H](CCC(N)=O)C(=O)N[C@@H](CCC(N)=O)C(=O)NCC(=O)N[C@@H](CCC(=O)O)C(=O)N[C@@H](CO)C(=O)N[C@@H](CC(N)=O)C(=O)N[C@@H](CCC(N)=O)C(=O)N[C@@H](CCC(=O)O)C(=O)N[C@@H](CCCNC(=N)N)C(=O)NCC(=O)N[C@@H](C)C(=O)N[C@@H](CCCNC(=N)N)C(=O)N[C@@H](C)C(=O)N[C@@H](CCCNC(=N)N)C(=O)N[C@@H](CC(C)C)C(N)=O)[C@@H](C)CC)C(C)C)[C@@H](C)O)[C@@H](C)CC [TH9507, (hexenoyl trans-3)hGRF(1-44)NH2], the “Circulating IGF-1 level vs placebo” value (IGF-1 and IGFBP-3; 0.1 mg) is reported as “did not affect”, the “Circulating IGFBP-3 level vs placebo” value (IGF-1 and IGFBP-3; 0.1 mg) is reported as “did not affect” and the “Circulating IGF-1 level vs placebo” value (IGF-1 and IGFBP-3; 1 mg) is reported as “significantly increased”. For the same molecule, the “Circulating IGFBP-3 level vs placebo” value (IGF-1 and IGFBP-3; 1 mg) was “significantly increased”, the “Change from Baseline to day 9 in the Pz amplitude of the Evoked Related Potential (P300)” value [1] was “+55%” and the “mean AUC of antigen-specific proliferative T cell response vs placebo” value [2] was “statistically higher”. For the same molecule, the “percentage of subjects with protective antibody level” value ([3]; Panama and New Caledonia strains) was “No statistical difference”, the “proportion of patients achieving a protective antibody level vs placebo” value ([3]; Victoria antigen, statistically significant at 2 mg, weeks 6-20) was “increased” and the “mean IGF-1 values vs baseline” value (IGF-1 [4]) was “dose-related increase”. For the same molecule, the “incidence of adverse events between treatment groups” value [5] was “No major difference”, the “incidence of reactions at the site of injection” value [5] was “dose-related trend” and the GH response (GH secretion) was “increased rapidly”. The “Cmax and AUC parameters” value ([6]; 0.5, 1, 2 mg SC) was “increased in function of the dose administered”, the half-life ([6]; male, human, in vivo, SC, healthy men) was 120 to 300 min and the “glycosylated hemoglobin (HbA1c) levels” value ([7]; 1 mg) was “a decrease”. For the same molecule, the “glycosylated hemoglobin (HbA1c) levels” value ([7]; 2 mg) was “no change”, the “insulin relative response to an oral glucose tolerance test, between groups” value ([7]; placebo, 1 mg, 2 mg, treatment period) was “No statistically significant differences” and the IGF-1 levels (IGF-1 [8]) was “dose-related increase”. The “CD4, Δ” value ([9]; 1 mg SC QD) was 24.4 (147.41) cells/mm^3, the “CD4, Δ” value ([9]; 2 mg SC QD) was −23.2 (70.7) cells/mm^3 and the “CD4 count and viral load” value ([9]; in vivo) was “did not change”. The Anti-TH9507 antibodies [10] was “not detected”, the “Blood pressure and heart rate” value [10] was “did not change” and the “Safety laboratory values, including hemoglobin, WBC, LFT's, creatinine” value [10] was “did not differ”. For the same molecule, the IGF-I (IGF-1 [11]) was “increase IGF-I to the physiological range seen in younger adults”, the overall glycemic control [12] was “not shown to aggravate overall glycemic control” and the “Chol:HDL, Δ” value ([13]; 1 mg SC QD) was −0.3 (0.6). The “HDL, Δ” value ([13]; 1 mg SC QD) was 0.0 (0.2) mmol/L, the “LDL, Δ” value ([13]; 1 mg SC QD) was 0.1 (0.8) mmol/L and the “NONHDL Cholesterol, Δ” value ([13]; 1 mg SC QD) was −0.4 (1.5) mmol/L. For the same molecule, the “Total Cholesterol, Δ” value ([13]; 1 mg SC QD) was −0.4 (1.7) mmol/L, the “Triglycerides, Δ” value ([13]; 1 mg SC QD) was −1.1 (4.4) mEq/L and the Triglyceride levels change ([13]; 1 mg SC QD) was −0.9 (4.2). The “ratio of cholesterol to HDL change” value ([13]; 1 mg SC QD) was −0.3 (0.7), the “Chol:HDL, Δ” value ([13]; 2 mg SC QD) was −0.3 (0.7) and the “HDL, Δ” value ([13]; 2 mg SC QD) was 0.1 (0.1)* mmol/L. For the same molecule, the “LDL, Δ” value ([13]; 2 mg SC QD) was 0.2 (0.7) mmol/L, the “NONHDL Cholesterol, Δ” value ([13]; 2 mg SC QD) was −0.1 (0.7) mmol/L and the “Total Cholesterol, Δ” value ([13]; 2 mg SC QD) was −0.1 (0.8) mmol/L. The “Triglycerides, Δ” value ([13]; 2 mg SC QD) was −0.9 (1.3)* mEq/L, the Triglyceride levels change ([13]; 2 mg SC QD) was −0.9 (1.2) and the “ratio of cholesterol to HDL change” value ([13]; 2 mg SC QD) was −0.3 (0.6). For the same molecule, the Trunk fat change ([14]; 1 mg SC QD, 12 weeks) was −4.6%, the “Fat Mass, Δ” value ([14]; 1 mg SC QD) was −0.4 (1.8) kg and the “Lean Body Mass, Δ” value ([14]; 1 mg SC QD) was 0.7 (2.0) kg. For the same molecule, the “Limb Fat, Δ” value ([14]; 1 mg SC QD) was 0.1 (0.5) kg, the “Trunk Fat, Δ” value ([14]; 1 mg SC QD) was −0.5 (1.4) kg and the Trunk fat change ([14]; 2 mg SC QD, 12 weeks) was −9.2%. For the same molecule, the “Fat Mass, Δ” value ([14]; 2 mg SC QD) was −1.4 (2.0) kg and −1.4 (2.0)* kg, the “Lean Body Mass, Δ” value ([14]; 2 mg SC QD) was 1.7 (2.3) kg and 1.7 (2.3)* kg and the “Limb Fat, Δ” value ([14]; 2 mg SC QD) was −0.3 (0.8) kg. The “Trunk Fat, Δ” value ([14]; 2 mg SC QD) was −1.1 (1.3)* kg, the limb fat ([14]; 1 and 2 mg SC QD, 12 weeks) was “no significant change” and the “NTX, Δ” value ([15]; 1 mg SC QD) was 4.5 (24.9) nMBCE/mM. The “Osteocalcin, Δ” value ([15]; 1 mg SC QD) was 1.5 (4.8) ng/mL, the NTX ([15]; 2 mg SC QD, 12 weeks) was “no changes” and the Osteocalcin within group ([15]; 2 mg SC QD, 12 weeks) was “increased significantly”. The “NTX, Δ” value ([15]; 2 mg SC QD) was −0.5 (27.7) nMBCE/mM, the “Osteocalcin, Δ” value ([15]; 2 mg SC QD) was 3.0 (2.8)* ng/mL and the “Musculoskeletal AE's e.g. pain and arthralgias, subjects” value ([16]; 1 mg) was 26%. For the same molecule, the “Musculoskeletal AE's e.g. pain and arthralgias, subjects” value ([16]; 2 mg) was 29%.
